Data on 32 compounds can be found in patent publication US20250136570A1 (Tango Therapeutics, Inc., priority 2021, published 2025).

Each structure is given as a SMILES string.

One assay concerns the target Recombinant HDAC1 (Homo sapiens (Human), UniProt Q13547). The assay can be described thus: HDAC1 inhibition, Fluor de Lys fluorescent enzyme assay. The class given is biochemical. The following applies: 3 hours pre-incubation at room temp; 6 nM enzyme; 16 μM Fluor de Lys substrate; duplicate. The gist of the method:
(§1)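 Enzyme (HDAC1 6 nM, HDAC3/NCor2 1.2 nM final) pre-incubated with compound 3 h at ~22 °C in Tris pH 8 buffer with 0.01% BSA. Reaction run 1 h with 16 μM Fluor de Lys substrate and stopped with TSA-containing developer. Fluorescence read at Ex 360/Em 460; IC50 from an occupancy equation with Hill coefficient, in duplicate.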

The next assay deals with HDAC3/NCor2 (Homo sapiens (Human), UniProt O15379). The assay can be described thus: HDAC3 inhibition, Fluor de Lys fluorescent enzyme assay. It counts as biochemical. The following applies: 3 hours pre-incubation at room temp; 1.2 nM enzyme; 16 μM Fluor de Lys substrate; duplicate. The essentials: as §1
HDAC3/NCor2, sequence (O15379 whole entry): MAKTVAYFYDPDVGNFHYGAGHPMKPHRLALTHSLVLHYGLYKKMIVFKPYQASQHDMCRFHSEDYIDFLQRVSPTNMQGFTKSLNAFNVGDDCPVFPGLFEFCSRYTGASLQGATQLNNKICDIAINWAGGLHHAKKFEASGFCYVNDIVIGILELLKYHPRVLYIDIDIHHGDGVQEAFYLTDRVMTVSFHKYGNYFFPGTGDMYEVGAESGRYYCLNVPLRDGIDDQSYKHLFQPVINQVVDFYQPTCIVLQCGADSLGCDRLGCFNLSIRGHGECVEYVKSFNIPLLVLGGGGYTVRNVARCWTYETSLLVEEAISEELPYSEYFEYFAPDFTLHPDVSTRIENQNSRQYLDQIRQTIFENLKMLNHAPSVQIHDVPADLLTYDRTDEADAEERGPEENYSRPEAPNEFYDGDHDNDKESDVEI
HDAC3/NCor2, sequence (Q9Y618 395-489 partner): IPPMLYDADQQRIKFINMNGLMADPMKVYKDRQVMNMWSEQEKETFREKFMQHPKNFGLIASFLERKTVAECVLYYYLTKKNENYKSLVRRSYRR

Recombinant HDAC1, sequence (Q13547 whole entry): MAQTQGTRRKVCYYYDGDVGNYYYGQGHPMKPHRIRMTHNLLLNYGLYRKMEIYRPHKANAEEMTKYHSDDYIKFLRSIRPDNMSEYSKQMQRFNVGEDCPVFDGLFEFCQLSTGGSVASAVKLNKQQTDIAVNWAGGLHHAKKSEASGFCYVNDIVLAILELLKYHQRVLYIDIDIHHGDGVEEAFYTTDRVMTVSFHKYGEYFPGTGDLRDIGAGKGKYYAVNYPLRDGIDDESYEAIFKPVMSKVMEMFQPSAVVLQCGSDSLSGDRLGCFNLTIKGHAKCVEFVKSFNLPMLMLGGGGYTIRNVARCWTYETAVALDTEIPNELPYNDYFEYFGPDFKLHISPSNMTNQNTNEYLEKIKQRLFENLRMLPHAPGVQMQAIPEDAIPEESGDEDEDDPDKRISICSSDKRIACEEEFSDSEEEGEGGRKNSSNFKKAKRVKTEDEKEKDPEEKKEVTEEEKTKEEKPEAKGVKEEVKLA

For the compound `N=S(=O)(c1ccc(C(=O)Nc2cc(-c3ccc(F)cc3)ccc2N)cc1)c1ccc(C(F)(F)F)cc1` (stereo not shown) [Compound 256, N-[2-amino-5-(4-fluorophenyl)phenyl]-4-[[4-(trifluoromethyl)phenyl]sulfonimidoyl]benzamide], the IC50 on Recombinant HDAC1 was under 0.1 µM; on HDAC3/NCor2, over 2 µM.
`CS(=N)(=O)c1ncc(C(=O)Nc2cc(-c3ccc(F)cc3)ccc2N)s1` (stereo not shown) [Compound 164, N-[2-amino-5-(4-fluorophenyl)phenyl]-2-(methylsulfonimidoyl)thiazole-5-carboxamide]: the IC50 was 0.1 to 0.5 µM at Recombinant HDAC1 and 0.5 to 2 µM against HDAC3/NCor2.
For `Nc1ccc(-c2ccc(F)cc2)cc1NC(=O)c1ccc([S@@]2(=O)=NCCC2)cc1` (stereo in doubt) [Compound 185, N-[2-amino-5-(4-fluorophenyl)phenyl]-4-[rel-(1R)-1-oxo-4,5-dihydro-3H-isothiazol-1-yl]benzamide], the values for the IC50 at Recombinant HDAC1 and against HDAC3/NCor2 were under 0.1 µM and 0.5 to 2 µM, respectively.
`CCN=S(C)(=O)c1ccc(C(=O)Nc2cc(-c3ccc(F)cc3)ccc2N)cn1` (stereo not shown) [Compound 169, N-[2-amino-5-(4-fluorophenyl)phenyl]-6-(N-ethyl-S-methyl-sulfonimidoyl)pyridine-3-carboxamide]: the IC50 on Recombinant HDAC1 was under 0.1 µM; on HDAC3/NCor2, 0.5 to 2 µM.
For `N=S(=O)(c1ccc(C(=O)Nc2cc(-c3ccc(F)cc3)ccc2N)cc1)c1cnccc1C1CC1` (stereo not shown) [Compound 191, N-[2-amino-5-(4-fluorophenyl)phenyl]-4-[(4-cyclopropyl-3-pyridyl)sulfonimidoyl]benzamide], the IC50 was under 0.1 µM on Recombinant HDAC1 and 0.5 to 2 µM at HDAC3/NCor2.
On the same counts, the results for `N=[S@](=O)(c1ccc(C(=O)Nc2cc(-c3ccc(F)cc3)ccc2N)cc1)c1cncnc1` (single isomer, unassigned) [Compound 183] are under 0.1 µM and 0.5 to 2 µM.
Regarding `Nc1ccc(-c2ccc(F)cc2)cc1NC(=O)c1ccc([S@]2(=O)=NCCC2)cc1` (stereo in doubt) [Compound 184, N-[2-amino-5-(4-fluorophenyl)phenyl]-4-[rel-(1S)-1-oxo-4,5-dihydro-3H-isothiazol-1-yl]benzamide], the figures for the IC50 on Recombinant HDAC1 and on HDAC3/NCor2 were under 0.1 µM and 0.5 to 2 µM, respectively.
On the same counts, the results for `CC1CCS(=O)(c2ccc(C(=O)Nc3cc(-c4ccc(F)cc4)ccc3N)cc2)=N1` (stereo not shown) [Compound 244] are under 0.1 µM and over 2 µM.
As to `CS(=N)(=O)c1cnc2cc(C(=O)Nc3cc(-c4ccc(F)cc4)ccc3N)sc2c1` (stereo not shown) [Compound 200, N-[2-amino-5-(4-fluorophenyl)phenyl]-6-(methylsulfonimidoyl)thieno[3,2-b]pyridine-2-carboxamide], the IC50 is under 0.1 µM on Recombinant HDAC1 and 0.5 to 2 µM on HDAC3/NCor2.
In the case of `CS(=N)(=O)c1ccc(C(=O)Nc2cc(-c3cccnn3)ccc2N)cc1` (stereo not shown) [Compound 157, N-(2-amino-5-pyridazin-3-yl-phenyl)-4-(methylsulfonimidoyl)benzamide], the IC50 at Recombinant HDAC1 is under 0.1 µM; against HDAC3/NCor2, over 2 µM.
For the compound `N=S(=O)(c1ccc(C(=O)Nc2cc(-c3ccc(F)cc3)ccc2N)cc1)c1cnccn1` (stereo not shown) [Compound 195, N-[2-amino-5-(4-fluorophenyl)phenyl]-4-(pyrazin-2-ylsulfonimidoyl)benzamide], the IC50 is under 0.1 µM on Recombinant HDAC1 and 0.5 to 2 µM on HDAC3/NCor2.
In the case of `CS(=O)(=NC1CC1)c1ccc2oc(C(=O)Nc3cc(-c4ccc(F)cc4)ccc3N)cc2c1` (stereo not shown) [Compound 230, N-[2-amino-5-(4-fluorophenyl)phenyl]-5-(N-cyclopropyl-S-methyl-sulfonimidoyl)benzofuran-2-carboxamide], the IC50 is under 0.1 µM on Recombinant HDAC1 and 0.5 to 2 µM at HDAC3/NCor2.
As for `N=S(=O)(c1ccc(C(=O)Nc2cc(-c3ccc(F)cc3)ccc2N)cc1)c1ccc(F)cn1` (stereo not shown) [Compound 247, N-[2-amino-5-(4-fluorophenyl)phenyl]-4-[(5-fluoro-2-pyridyl)sulfonimidoyl]benzamide], the IC50 on Recombinant HDAC1 is under 0.1 µM; against HDAC3/NCor2, 0.5 to 2 µM.
On to `N=S(=O)(c1ccc(C(=O)Nc2cc(-c3ccc(F)cc3)ccc2N)cc1)C1CC1` (racemic) [Compound 111, rac-N-[2-amino-5-(4-fluorophenyl)phenyl]-4-(cyclopropylsulfonimidoyl)benzamide], for which the values for the IC50 at Recombinant HDAC1 and against HDAC3/NCor2 were under 0.1 µM and 0.5 to 2 µM, respectively.
As to `CCN=S(C)(=O)c1ccc(C(=O)Nc2cc(-c3ccc(F)cc3)ccc2N)cc1` (stereo not shown) [Compound 165, N-[2-amino-5-(4-fluorophenyl)phenyl]-4-(N-ethyl-S-methyl-sulfonimidoyl)benzamide], the results for the IC50 on Recombinant HDAC1 and on HDAC3/NCor2 were under 0.1 µM and 0.5 to 2 µM, respectively.
With `CCS(=N)(=O)c1ccc(C(=O)Nc2cc(-c3ccc(F)cc3)ccc2N)cc1` (stereo not shown) [Compound 194, N-[2-amino-5-(4-fluorophenyl)phenyl]-4-(ethylsulfonimidoyl)benzamide], the IC50 on Recombinant HDAC1 is under 0.1 µM; against HDAC3/NCor2 it was 0.5 to 2 µM.
As for `N=[S@@](=O)(c1ccc(C(=O)Nc2cc(-c3ccc(F)cc3)ccc2N)cc1)c1ccccn1` (single isomer, unassigned) [Compound 212], the IC50 at Recombinant HDAC1 is under 0.1 µM; on HDAC3/NCor2, 0.5 to 2 µM.
On to `Cc1cnc(S(=N)(=O)c2ccc(C(=O)Nc3cc(-c4ccc(F)cc4)ccc3N)cc2)[nH]1` (stereo not shown) [Compound 228, N-[2-amino-5-(4-fluorophenyl)phenyl]-4-[(5-methyl-1H-imidazol-2-yl)sulfonimidoyl]benzamide], for which the values for the IC50 on Recombinant HDAC1 and on HDAC3/NCor2 were under 0.1 µM and 0.1 to 0.5 µM, respectively.
Turning to `N=S(=O)(c1ccc(C(=O)Nc2cc(-c3ccc(F)cc3)ccc2N)cc1)c1cccnn1` (stereo not shown) [Compound 174, N-[2-amino-5-(4-fluorophenyl)phenyl]-4-(pyridazin-3-ylsulfonimidoyl)benzamide], the IC50 is under 0.1 µM at Recombinant HDAC1 and 0.5 to 2 µM against HDAC3/NCor2.
`N#Cc1cncc(S(=N)(=O)c2ccc(C(=O)Nc3cc(-c4ccc(F)cc4)ccc3N)cc2)c1` (stereo not shown) [Compound 232, N-(4-amino-4′-fluoro-[1,1′-biphenyl]-3-yl)-4-(5-cyanopyridine-3-sulfonimidoyl)benzamide]: the IC50 was under 0.1 µM on Recombinant HDAC1 and over 2 µM on HDAC3/NCor2.
`CC(C)(C)OC(=O)N=S(=O)(c1ccc(C(=O)Nc2cc(-c3cccs3)ccc2NC(=O)OC(C)(C)C)cc1)C1CC1` (stereo not shown) [Compound 112, tert-butyl N-[[4-[[2-(tert-butoxycarbonylamino)-5-(2-thienyl)phenyl]carbamoyl]phenyl]-cyclopropyl-oxo-sulfanylidene]carbamate]: the IC50 on Recombinant HDAC1 and against HDAC3/NCor2 was over 2 µM in each case.
For the compound `CS(=N)(=O)c1ccc(C(=O)Nc2cc(-c3ccccn3)ccc2N)cc1` (stereo not shown) [Compound 119, N-[2-amino-5-(2-pyridyl)phenyl]-4-(methylsulfonimidoyl)benzamide], the values for the IC50 on Recombinant HDAC1 and against HDAC3/NCor2 were 0.1 to 0.5 µM and over 2 µM, respectively.
Regarding `N=S(=O)(c1ccc(C(=O)Nc2cc(-c3ccc(F)cc3)ccc2N)cc1)c1cncc(Cl)c1` (stereo not shown) [Compound 245, N-(4-amino-4′-fluoro-[1,1′-biphenyl]-3-yl)-4-(5-chloropyridine-3-sulfonimidoyl)benzamide], the IC50 at Recombinant HDAC1 was under 0.1 µM; at HDAC3/NCor2 it was 0.5 to 2 µM.
On the same counts, the results for `CS(=N)(=O)Cc1ccc(C(=O)Nc2cc(-c3cccs3)ccc2N)cc1` (stereo not shown) [Compound 128, N-[2-amino-5-(2-thienyl)phenyl]-4-[(methylsulfonimidoyl)methyl]benzamide] are under 0.1 µM and 0.5 to 2 µM.
As to `N=S(=O)(c1ccccn1)c1ccc(C(=O)Nc2cc(-c3ccc(F)cc3)ccc2N)cn1` (stereo not shown) [Compound 175, N-[2-amino-5-(4-fluorophenyl)phenyl]-6-(2-pyridylsulfonimidoyl)pyridine-3-carboxamide], the IC50 on Recombinant HDAC1 is under 0.1 µM; at HDAC3/NCor2, 0.5 to 2 µM.
In the case of `CS(=N)(=O)c1ccc(C(=O)Nc2cc(-c3cccs3)ccc2N)cn1` (stereo not shown) [Compound 110, N-[2-amino-5-(2-thienyl)phenyl]-6-(methylsulfonimidoyl)pyridine-3-carboxamide], the IC50 on Recombinant HDAC1 is under 0.1 µM; against HDAC3/NCor2, 0.5 to 2 µM.
On the same counts, the results for `Cc1ccc(S(=N)(=O)c2ccc(C(=O)Nc3cc(-c4ccc(F)cc4)ccc3N)cc2)cn1` (stereo not shown) [Compound 233, N-[2-amino-5-(4-fluorophenyl)phenyl]-4-[(6-methyl-3-pyridyl)sulfonimidoyl]benzamide] are under 0.1 µM and 0.5 to 2 µM.
With `CC(C)c1cncc(S(=N)(=O)c2ccc(C(=O)Nc3cc(-c4ccc(F)cc4)ccc3N)cc2)c1` (stereo not shown) [Compound 226, N-[2-amino-5-(4-fluorophenyl)phenyl]-4-[(5-isopropyl-3-pyridyl)sulfonimidoyl]benzamide], the IC50 is under 0.1 µM at Recombinant HDAC1 and 0.5 to 2 µM against HDAC3/NCor2.
Take `N=S(=O)(c1ccc(C(=O)Nc2cc(-c3ccc(F)cc3)ccc2N)cc1)c1cncc(F)c1` (stereo not shown) [Compound 206, N-(4-amino-4′-fluoro-[1,1′-biphenyl]-3-yl)-4-(5-fluoropyridine-3-sulfonimidoyl)benzamide]: the figures for the IC50 on Recombinant HDAC1 and against HDAC3/NCor2 were under 0.1 µM and 0.5 to 2 µM, respectively.
For `C[S@](=N)(=O)c1ccc(C(=O)Nc2cc(-c3ccc(F)s3)ccc2N)cc1` [Compound 149, (S)—N-[2-amino-5-(5-fluoro-2-thienyl)phenyl]-4-(methylsulfonimidoyl)benzamide], the values for the IC50 on Recombinant HDAC1 and at HDAC3/NCor2 were under 0.1 µM and 0.5 to 2 µM, respectively.
Regarding `CS(=N)(=O)c1ccc(C(=O)Nc2cc(-c3cccnc3)ccc2N)cc1` (stereo not shown) [Compound 107, N-[2-amino-5-(3-pyridyl)phenyl]-4-(methylsulfonimidoyl)benzamide], the values for the IC50 at Recombinant HDAC1 and at HDAC3/NCor2 were 0.1 to 0.5 µM and 0.5 to 2 µM, respectively.
As for `CS(=N)(=O)c1cnc(C(=O)Nc2cc(-c3ccc(F)cc3)ccc2N)s1` (stereo not shown) [Compound 188, N-[2-amino-5-(4-fluorophenyl)phenyl]-5-(methylsulfonimidoyl)thiazole-2-carboxamide], the IC50 at Recombinant HDAC1 is under 0.1 µM; at HDAC3/NCor2, 0.5 to 2 µM.
